# Reference: patent publication US12173088B2, “Anti-microbial peptides” (priority 2018, dated 2024)
# Read-outs that look alike come from different tables or passages of the source. Peptide text beside a SMILES is read from it.
# Key:
# [1] = tested on: E. coli ATCC 25922; type: cell-based, Escherichia coli
# Outline: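 Broth microdilution: log-phase E. coli diluted to OD600 0.001 and exposed to two-fold serial peptide dilutions overnight at 37 °C. Growth read at 630 nm.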
# [2] = tested on: human red blood cells (hRBCs); experiment: Hemolytic assay; type: cell-based
# Outline: (§1)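 Washed hRBCs (2% v/v) exposed to peptide for 1 h at 37 °C, then centrifuged and hemoglobin in supernatant read at 545 nm. Lysis normalized to Triton X-100 (2% or 1%; 100%) and PBS (0%); HL50 is the peptide concentration giving 50% lysis, and CSI is HL50/MIC.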
# [3] = Hemolytic assay; type: cell-based, human; conditions: human, human red blood cells, 2% (v/v)
# Outline: as §1
# [4] = tested on: K. pneumoniae ATCC 13883; type: cell-based, Klebsiella pneumoniae; conditions: quantified by UV
# Outline: (§2)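 Broth microdilution in tryptic soy broth: log-phase cultures (OD600 ≈0.5) diluted to OD600 0.001, given two-fold peptide dilutions, incubated overnight at 37° C. Growth read at 630 nm.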
# [5] = tested on: P. aeruginosa PAO1; type: cell-based, Pseudomonas aeruginosa
# Outline: as §2
# [6] = tested on: S. aureus USA300; experiment: microbe, parasite or virus in culture; type: cell-based, Staphylococcus aureus; conditions: for MIC S. aureus USA 300: quantified by UV
# Outline: (§3)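 Broth microdilution: log-phase cultures in tryptic soy broth diluted to OD600 0.001, exposed to two-fold diluted peptides at 37° C overnight, growth read at 630 nm. Medium effects on S. aureus USA300 tested with up to 200 mM NaCl, 2 mM CaCl2, 5-10% human serum, mouse plasma, fluids or tissue homogenate supernatants.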
# [7] = tested on: K. pneumoniae E406-17; experiment: microbe, parasite or virus in culture; type: cell-based, Klebsiella pneumoniae; conditions: for MIC: Table 14, read-out: MIC K. pneumoniae E406-17; for MIC K. pneumonia 406-17: E406-17
# Experimental: (§4) The antibacterial activity of peptides was evaluated using a standard broth microdilution protocol with minor modifications as described (Mishra, et al. (2012) J. Am. Chem. Soc., 134:12426-12429). In brief, logarithmic phase bacterial cultures (i.e., optical density at 600 nm≈0.5) were diluted to OD600 0.001 and partitioned into a 96-well polystyrene microplate at 90 μL per well. After treatment with 10 μL of peptide solutions two fold diluted to various concentrations, microplates were incubated at 37° C. overnight and read on a ChroMate® 4300 Microplate Reader at 630 nm (GMI, Ramsey, MN). […] To study the influence of medium conditions on the antimicrobial activity of peptides against S. aureus USA300, up to 200 mM sodium chloride (NaCl), 2 mM of calcium chloride, 5-10% of human serum, mouse plasma, fluid, or supernatants of tissue homogenates were included into the assays.
# (§5) The bacterial strains used include the Gram-positive bacteria methicillin-resistant Staphylococcus aureus USA300, Enterococcus faecium V286-17 (VRE), S. aureus M838-17 (MRSA) and Gram-negative bacteria E. coli E423-17, E416-7 (ampC), P. aeruginosa E411-17, PA01, K. pneumoniae E406-17, ATCC13883, and A. baumannii B26-16. Bacteria were cultivated in tryptic soy broth (TSB) from BD Bioscience.
# (§6) The antibacterial activity of peptides was evaluated using a standard broth microdilution protocol with minor modifications (Mishra, et al. (2017) Acta Biomater., 49:316-328). In brief, logarithmic phase bacterial cultures (i.e., optical density at 600 nm≈0.5) were diluted to 0.001 OD and aliquoted 90 μL per well into a 96-well polystyrene microplate. Added 10 μL peptides per well with various concentrations, plates were incubated at 37° C., overnight. Post incubation the plates are read at 630 nm using a ChroMate® Microplate Reader (GMI). […] To study the influence of medium conditions on the antimicrobial activity of peptides against S. aureus USA300 at different pHs (6.8, 7.2, and 8.0), 150 mM sodium chloride (NaCl), 5-10% of human serum, mouse plasma, and peritoneal fluid were included into the assays.
# [8] = tested on: Klebsiella pneumoniae clinical strains; experiment: microbe, parasite or virus in culture; conditions: Klebsiella pneumoniae
# Experimental: as §6
# [9] = tested on: E. coli E423-17; experiment: microbe, parasite or virus in culture; type: cell-based, Escherichia coli; conditions: Table 14, read-out: MIC E. coli E423-17
# Source text: (§7) The bacterial strains used include the Gram-positive strains Staphylococcus aureus USA300 LAC, S. epidermidis 1457, and Bacillus subtilis 168, as well as the Gram-negative isolates Escherichia coli K12 and Acinetobacter baumannii B2367-12. Additional, drug resistance strains include Gram-positive Enterococcus faecium V286-17 (VRE) and S. aureus M838-17 (MRSA) and Gram-negative E. coli E423-17, E. coli E416-17 (ampC), and P. aeruginosa E411-17. Bacteria were cultivated in tryptic soy broth (TSB) (BD Bioscience, MD).
# as §4, §5, §6
# [10] = tested on: A. baumannii B26-16; experiment: microbe, parasite or virus in culture; type: cell-based, Acinetobacter baumannii; conditions: Table 14, read-out: MIC A. baumannii B26-16
# Experimental: as §5, §6
# [11] = tested on: E. faecium V286-17 (VRE); experiment: microbe, parasite or virus in culture; type: cell-based, Enterococcus faecium; conditions: Table 14, read-out: MIC E. faecium V286-17 (VRE)
# Source text: as §7, §4, §5, §6
# [12] = tested on: P. aeruginosa E411-17; experiment: microbe, parasite or virus in culture; type: cell-based, Pseudomonas aeruginosa; conditions: for MIC: Table 14, read-out: MIC P. aeruginosa E411-17; for MIC P. aeruginosa 411-17: E411-17
# Source text: as §7, §4, §5, §6
# [13] = tested on: S. aureus M838-17 (MRSA); experiment: microbe, parasite or virus in culture; type: cell-based, Staphylococcus aureus; conditions: M838-17
# Outline: as §3
# [14] = Table 4, quantitated based on weight
compound,measurement,setting,value
"CC(C)C[C@H](NC(=O)[C@H](CC(C)C)NC(=O)[C@H](CCCCN)NC(=O)CNC(=O)[C@H](CC(C)C)NC(=O)[C@H](CC(C)C)NC(=O)[C@H](CO)NC(=O)[C@H](CC(C)C)NC(=O)[C@H](CC(C)C)NC(=O)[C@H](CO)NC(=O)[C@H](CC(C)C)NC(=O)[C@H](CC(C)C)NC(=O)CN)C(N)=O [DFTamP1, GLLSLLSLLGKLL] (H-GLLSLLSLLGKLL-NH2; N-terminus assumed)",MIC E. coli ATCC 25922,"[1]; Table 2, quantified by UV",>25 µM
same,MIC EC (E. coli ATCC 25922),[1]; [14],>25 µM
same,HL50,"[2]; Table 2, lysis of 50% hRBCs (2% v/v)",<3.1 µM
same,HL50,"[2]; Table 3, hRBCs 2% v/v",<3.1 µM
same,HC50 at 1 h,"[3]; Table 4, quantitated based on weight, read-out: HL50, peptide concentration for 50% hemolysis",10 µM
same,MIC K. pneumoniae,[4]; Table 2,>25 µM
same,MIC K. pneumonia ATCC 13883,[4]; Table 3,>25 µM
same,MIC P. aeruginosa PAO1,"[5]; Table 2, quantified by UV",>25 µM
same,MIC PA (P. aeruginosa PAO1),[5]; [14],>25 µM
same,MIC,[6]; 1 mM Ca2+,0.78 µM
same,MIC,[6]; 2 mM Ca2+,0.78 to 1.56 µM
same,MIC,[6]; 50 mM NaCl,0.78 µM
same,MIC,[6]; 100 mM NaCl,0.78 µM
same,MIC,[6]; 200 mM NaCl,0.78 µM
same,MIC,"[6]; Human serum (5%), Table 5",12.5 µM
same,MIC,"[6]; Murine plasma (5%), Table 5",6.2^ 2 μM
same,MIC,"[6]; NaCl (150 mM), Table 5",3.1 to 6.2 µM
same,MIC,"[6]; No salts added, Table 6, by UV",0.78 µM
same,MIC S. aureus USA 300,"[6]; Table 2, peptides amidated",0.78 µM
same,MIC S. aureus USA 300,[6]; Table 3,0.78 µM
same,MIC SA (S. aureus USA300),[6]; [14],3.1 µM
same,MIC,"[6]; pH 6.8, Table 5, by weight",6.2 µM
same,MIC,"[6]; pH 7.4, Table 5",3.1 µM
same,MIC,"[6]; pH 8.0, Table 5",3.1 µM
"NC[C@H]1O[C@H](O[C@H]2[C@H](O)[C@@H](O[C@H]3O[C@H](CO)[C@@H](O)[C@H](N)[C@H]3O)[C@H](N)C[C@@H]2N)[C@H](N)C[C@@H]1O [Tobramycin, reference compound]",MIC,"[7]; Klebsiella pneumoniae, E40617",> 8 µM
same,MIC,[8]; strain KP-231-18,64 µM
same,MIC,[8]; strain KP-232-18,> 64 µM
same,MIC,[8]; strain KP-245-18,4 to 8 µM
same,MIC,[8]; strain KP-249-18,8 µM
same,MIC,[8]; strain KP-253-18,8 µM
same,MIC,[8]; strain KP-256-18,> 64 µM
same,MIC,[8]; strain KP-257-18,> 64 µM
same,MIC,[8]; strain KP-262-18,4 µM
same,MIC,[8]; strain KP-270-18,16 µM
same,MIC,[8]; strain KP-B42-15,8 µM
same,MIC,[8]; strain KP-B53-15,4 µM
same,MIC,[8]; strain KP-B73-15,4 µM
same,MIC,[8]; strain KP-B77-15,4 µM
same,MIC,[8]; strain KP-B1725-18,8 µM
same,MIC,"[9]; Escherichia coli, E42317",8 µM
same,MIC,"[10]; Acinetobacter baumannii, B2616",4 µM
same,MIC,"[6]; Staphylococcus aureus, MRSA / USA300, Table 14, read-out: MIC S. aureus USA300 (MRSA)",4 µM
same,MIC,"[11]; Enterococcus faecium, VRE",> 8 µM
same,MIC,"[12]; Pseudomonas aeruginosa, E41117",2 µM
"CC(C)C[C@H](NC(=O)[C@H](Cc1c[nH]c2ccccc12)NC(=O)[C@H](Cc1c[nH]c2ccccc12)NC(=O)[C@H](Cc1c[nH]c2ccccc12)NC(=O)[C@H](Cc1c[nH]c2ccccc12)NC(=O)[C@H](CCCNC(=N)N)NC(=O)[C@H](CCCNC(=N)N)NC(=O)[C@@H](N)CCCNC(=N)N)C(N)=O [WW306, RRRWWWWL] (H-RRRWWWWL-NH2; N-terminus and C-terminus assumed)",MIC K. pneumonia 406-17,[7],6.25 µM
same,HC50 at 1 h,[3],60 µM
same,MIC S. aureus M838-17,[13],3.1 µM
same,MIC P. aeruginosa 411-17,[12],6.25 µM
"C[C@H](NC(=O)[C@H](Cc1c[nH]c2ccccc12)NC(=O)[C@H](Cc1c[nH]c2ccccc12)NC(=O)[C@H](Cc1c[nH]c2ccccc12)NC(=O)[C@H](Cc1c[nH]c2ccccc12)NC(=O)[C@H](CCCNC(=N)N)NC(=O)[C@H](CCCNC(=N)N)NC(=O)[C@@H](N)CCCNC(=N)N)C(N)=O [WW308, RRRWWWWA] (H-RRRWWWWA-NH2; N-terminus and C-terminus assumed)",MIC K. pneumonia 406-17,[7],>50 µM
same,HC50 at 1 h,[3],> 200 µM
same,MIC S. aureus M838-17,[13],12.5 µM
same,MIC P. aeruginosa 411-17,[12],25 µM
"CC(C)C[C@H](NC(=O)[C@H](Cc1c[nH]c2ccccc12)NC(=O)[C@H](Cc1c[nH]c2ccccc12)NC(=O)[C@H](Cc1c[nH]c2ccccc12)NC(=O)[C@H](CCCNC(=N)N)NC(=O)[C@H](CCCNC(=N)N)NC(=O)[C@H](CCCNC(=N)N)NC(=O)[C@@H](N)CCCNC(=N)N)C(N)=O [WW309, RRRRWWWL] (H-RRRRWWWL-NH2; N-terminus and C-terminus assumed)",MIC K. pneumonia 406-17,[7],>50 µM
same,HC50 at 1 h,[3],> 200 µM
same,MIC S. aureus M838-17,[13],6.25 µM
same,MIC P. aeruginosa 411-17,[12],12.5 µM
Colistin [reference compound],MIC,[7],>8 µM
same,MIC,[9],1 µM
same,MIC,[10],1 µM
same,MIC,"[6]; Table 14, read-out: MIC S. aureus USA300 (MRSA)",>8 µM
same,MIC,[11],>8 µM
same,MIC,[12],2 µM
